Test results: patent US9255090B2, “Heterocyclyl derivatives and their use as prostaglandin D2 receptor modulators” (Actelion Pharmaceuticals Ltd., priority 2012, dated 2016)

target: hCRTH2 receptor (Homo sapiens (Human), UniProt Q9Y5Y4); test: hCRTH2 receptor membranes radioligand (3H-PGD2) displacement assay; format: binding; conditions: 3H-PGD2 radioligand displacement, HEK293-hCRTH2 membranes
How it was run: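 HEK293-hCRTH2 membranes, 20 μg/well; 3H-PGD2 added at 2.5 nM; binding buffer 50 mM Tris, 10 mM MnCl2, 1 mM EDTA, pH 7.0; 90 min RT; GF/C filtration, scintillation count. Nonspecific binding: PGD2 at […].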

hCRTH2 receptor, sequence (Q9Y5Y4 whole entry): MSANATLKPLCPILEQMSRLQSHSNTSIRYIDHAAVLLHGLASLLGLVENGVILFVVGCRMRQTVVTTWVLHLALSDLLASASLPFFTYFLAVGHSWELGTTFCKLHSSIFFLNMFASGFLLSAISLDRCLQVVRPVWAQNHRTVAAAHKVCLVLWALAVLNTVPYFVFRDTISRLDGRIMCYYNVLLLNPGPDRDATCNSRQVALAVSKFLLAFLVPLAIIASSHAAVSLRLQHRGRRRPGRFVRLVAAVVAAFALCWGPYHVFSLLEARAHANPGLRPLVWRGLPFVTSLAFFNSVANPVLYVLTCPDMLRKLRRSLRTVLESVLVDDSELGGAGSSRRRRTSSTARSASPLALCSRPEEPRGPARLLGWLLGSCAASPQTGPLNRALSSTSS

IC50 [nM]	SMILES
3.6	CCCc1ccc(CC(=O)O)cc1-c1ccc(F)c2c1CN(C(=O)OCc1ccccc1)CC2 [Example 215, 8-(5-Carboxymethyl-2-propyl-phenyl)-5-fluoro-3,4-dihydro-1H-isoquinoline-2-carboxylic acid benzyl ester]
19.4	CC(C)c1cc(CC(=O)O)ccc1-c1ccc(F)c2c1CN(C(=O)OCc1ccccc1)CC2 [Example 216, 8-(4-Carboxymethyl-2-isopropyl-phenyl)-5-fluoro-3,4-dihydro-1H-isoquinoline-2-carboxylic acid benzyl ester]
1.7	COc1cc(CC(=O)O)cc(OC)c1-c1ccc(F)c2c1CN(C(=O)OCc1ccccc1)CC2 [Example 218, 8-(4-Carboxymethyl-2,6-dimethoxy-phenyl)-5-fluoro-3,4-dihydro-1H-isoquinoline-2-carboxylic acid benzyl ester]
13.5	CCOc1ccc(CC(=O)O)cc1-c1ccc(F)c2c1CN(C(=O)[C@@H]1C[C@H]1c1ccccc1)CC2 [Example 220, {4-Ethoxy-3-[5-fluoro-2-((1R,2R)-2-phenyl-cyclopropanecarbonyl)-1,2,3,4-tetrahydro-isoquinolin-8-yl]-phenyl}-acetic acid]
10.5	CCOc1cc(CC(=O)O)ccc1-c1ccc(F)c2c1CN(C(=O)[C@@H]1C[C@H]1c1ccccc1)CC2 [Example 231, {3-Ethoxy-4-[5-fluoro-2-((1R,2R)-2-phenyl-cyclopropanecarbonyl)-1,2,3,4-tetrahydro-isoquinolin-8-yl]-phenyl}-acetic acid]
146	COc1ccc(CC(=O)O)cc1-c1ccc(F)c2c1CN(C(=O)CC1(c3ccccc3)CCC1)CC2 [Example 250, (3-{5-Fluoro-2-[2-(1-phenyl-cyclobutyl)-acetyl]-1,2,3,4-tetrahydro-isoquinolin-8-yl}-4-methoxy-phenyl)-acetic acid]
414	COc1ccc(CC(=O)O)cc1-c1ccc(F)c2c1CN(C(=O)CC1(c3ccc(F)cc3)CCC1)CC2 [Example 251, [3-(5-Fluoro-2-{2-[1-(4-fluoro-phenyl)-cyclobutyl]-acetyl}-1,2,3,4-tetrahydro-isoquinolin-8-yl)-4-methoxy-phenyl]-acetic acid]
614	COc1ccc(CC(=O)O)cc1-c1ccc(F)c2c1CN(C(=O)CC1CC1)CC2 [Example 254, {3-[2-(2-Cyclopropyl-acetyl)-5-fluoro-1,2,3,4-tetrahydro-isoquinolin-8-yl]-4-methoxy-phenyl}-acetic acid]
981	COc1ccc(CC(=O)O)cc1-c1ccc(F)c2c1CN(C(=O)[C@H](C)c1ccccc1)CC2 [Example 255, {3-[5-Fluoro-2-((R)-2-phenyl-propionyl)-1,2,3,4-tetrahydro-isoquinolin-8-yl]-4-methoxy-phenyl}-acetic acid]
95.7	COc1ccc(CC(=O)O)cc1-c1ccc(F)c2c1CN(C(=O)[C@@H]1CCCc3ccccc31)CC2 [Example 269, {3-[5-Fluoro-2-((R)-1,2,3,4-tetrahydro-naphthalene-1-carbonyl)-1,2,3,4-tetrahydro-isoquinolin-8-yl]-4-methoxy-phenyl}-acetic acid]
35.9	CCOc1ccc(CC(=O)O)cc1-c1ccc(F)c2c1CN(C(=O)CC1(c3ccccc3F)CC1)CC2 [Example 276, [4-Ethoxy-3-(5-fluoro-2-{2-[1-(2-fluoro-phenyl)-cyclopropyl]-acetyl}-1,2,3,4-tetrahydro-isoquinolin-8-yl)-phenyl]-acetic acid]
8.9	CC(C)(CC(=O)N1CCc2c(F)ccc(-c3ccc(CC(=O)O)cc3OCC(F)(F)F)c2C1)c1ccccc1 [Example 286, [4-[5-Fluoro-2-(3-methyl-3-phenyl-butyryl)-1,2,3,4-tetrahydro-isoquinolin-8-yl]-3-(2,2,2-trifluoro-ethoxy)-phenyl]-acetic acid]
8.1	C[C@@H](CC(=O)N1CCc2c(F)ccc(-c3ccc(CC(=O)O)cc3OCC(F)(F)F)c2C1)c1ccccc1 [Example 287, [4-[5-Fluoro-2-((S)-3-phenyl-butyryl)-1,2,3,4-tetrahydro-isoquinolin-8-yl]-3-(2,2,2-trifluoro-ethoxy)-phenyl]-acetic acid]
1.4	O=C(O)Cc1ccc(-c2ccc(F)c3c2CN(C(=O)[C@@H]2C[C@H]2c2ccccc2)CC3)c(OCC(F)(F)F)c1 [Example 289, [4-[5-Fluoro-2-((1R,2R)-2-phenyl-cyclopropanecarbonyl)-1,2,3,4-tetrahydro-isoquinolin-8-yl]-3-(2,2,2-trifluoro-ethoxy)-phenyl]-acetic acid]
5.9	CC(C)Oc1ccc(CC(=O)O)cc1-c1ccc(F)c2c1CN(C(=O)CC(C)(C)c1ccccc1)CC2 [Example 291, {3-[5-Fluoro-2-(3-methyl-3-phenyl-butyryl)-1,2,3,4-tetrahydro-isoquinolin-8-yl]-4-isopropoxy-phenyl}-acetic acid]
2.5	CC(C)Oc1ccc(CC(=O)O)cc1-c1ccc(F)c2c1CN(C(=O)C[C@@H](C)c1ccccc1)CC2 [Example 292, {3-[5-Fluoro-2-((R)-3-phenyl-butyryl)-1,2,3,4-tetrahydro-isoquinolin-8-yl]-4-isopropoxy-phenyl}-acetic acid]
1.7	Cc1cccc(CCC(=O)N2CCc3c(F)ccc(-c4cc(CC(=O)O)ccc4OC(C)C)c3C2)n1 [Example 295, (3-{5-Fluoro-2-[3-(6-methyl-pyridin-2-yl)-propionyl]-1,2,3,4-tetrahydro-isoquinolin-8-yl}-4-isopropoxy-phenyl)-acetic acid]
14.8	CC(C)(CC(=O)N1CCc2c(F)ccc(-c3cc(CC(=O)O)ccc3OCC(F)(F)F)c2C1)c1ccccc1 [Example 300, [3-[5-Fluoro-2-(3-methyl-3-phenyl-butyryl)-1,2,3,4-tetrahydro-isoquinolin-8-yl]-4-(2,2,2-trifluoro-ethoxy)-phenyl]-acetic acid]
3.6	C[C@H](CC(=O)N1CCc2c(F)ccc(-c3cc(CC(=O)O)ccc3OCC(F)(F)F)c2C1)c1ccccc1 [Example 301, [3-[5-Fluoro-2-((R)-3-phenyl-butyryl)-1,2,3,4-tetrahydro-isoquinolin-8-yl]-4-(2,2,2-trifluoro-ethoxy)-phenyl]-acetic acid]
12.6	Cc1cccc(CCC(=O)N2CCc3c(F)ccc(-c4cc(CC(=O)O)ccc4OCC(F)(F)F)c3C2)n1 [Example 304, [3-{5-Fluoro-2-[3-(6-methyl-pyridin-2-yl)-propionyl]-1,2,3,4-tetrahydro-isoquinolin-8-yl}-4-(2,2,2-trifluoro-ethoxy)-phenyl]-acetic acid]
32.3	CCOc1ccc(CC(=O)O)cc1-c1ccc(F)c2c1CN(C(=O)CCc1ncccc1OC)CC2 [Example 309, (4-Ethoxy-3-{5-fluoro-2-[3-(3-methoxy-pyridin-2-yl)-propionyl]-1,2,3,4-tetrahydro-isoquinolin-8-yl}-phenyl)-acetic acid]
3.9	CCOc1ccc(CC(=O)O)cc1-c1ccc(F)c2c1CN(C(=O)CCc1cccc(F)c1)CC2 [Example 311, (4-Ethoxy-3-{5-fluoro-2-[3-(3-fluoro-phenyl)-propionyl]-1,2,3,4-tetrahydro-isoquinolin-8-yl}-phenyl)-acetic acid]
4.8	CCOc1ccc(CC(=O)O)cc1-c1ccc(F)c2c1CN(C(=O)CCc1ccccc1F)CC2 [Example 312, (4-Ethoxy-3-{5-fluoro-2-[3-(2-fluoro-phenyl)-propionyl]-1,2,3,4-tetrahydro-isoquinolin-8-yl}-phenyl)-acetic acid]
